Reference: article PMC12040169 (PLOS Biology, 2025)

Assay: in vitro
Details: human, hela cells, % viability

Going from O=C(/C=C/c1cccnc1)Nc1cncc(OC2CCNCC2)n1 [CBK038919T] to CC(C)(C)OC(=O)N1CCC(CNCc2c[nH]c(-c3ccccc3)n2)CC1 [CBK056718], the viability at 28.5 h, 10 µM falls from 96.9% to 94.3%.

First: COCC(=O)N1CCC2(CC1)CC(=O)c1cc(Cl)cc(Cl)c1O2 [CBK156440]
Second: CCOC(=O)C1CCCN(Cc2nc3cc(Cl)ccc3c(=O)[nH]2)C1 (centres unmarked) [CBK306198]
The viability at 28.5 h, 10 µM of the first is lower: 84.1% for the first, 86.9% for the second.

Going from CCC(=O)Oc1ccc(C(=O)N2CCN(c3ccccc3F)CC2)cc1 [CBK307538] to COc1ccccc1N1CCN(C(=O)CCC(=O)c2cccs2)CC1 [CBK091498], the viability at 28.5 h, 10 µM rises from 103% to 109%.

Going from Ic1ccc2ncnc(NCCN3CCOCC3)c2c1 [CBK265655] to c1cnc(-c2ccoc2)c(NCCCN2CCOCC2)n1 [CBK036631], the viability at 28.5 h, 10 µM falls from 108% to 95.3%.

Compared with Cc1ccc(C2(O)CCN(CCNC(=O)C3CCCCC3)CC2)cc1 [CBK283323], O=C(CCC1CCCC1)N1CCC(O)(c2cccnc2)CC1 [CBK283603] is higher in viability at 28.5 h, 10 µM: 97.4% for the first, 101% for the second.

First: CCNC(=O)O[C@@H]1CO[C@H]2[C@@H]1OC[C@@H]2NC(=O)c1ccc(C)cc1 [CBK289472]
Second: CCC(=O)Nc1nc(-c2ccc(C(=O)OC)cc2)nc2c1c(=O)oc1ccccc12 [CBK268449]
The viability at 28.5 h, 10 µM of the first is lower: 106% for the first, 110% for the second.

Compared with O=C1CNC(=O)C2(C/C=C/C[C@H]3COCC[C@@H]3N1)CCN(C(=O)CCc1cccnc1)CC2 [CBK292051], CC(=O)N1CC[C@H]2NC(=O)CNC(=O)C3(CCCC[C@H]2C1)CCN(C(=O)COc1ccccc1)CC3 [CBK292101] is lower in viability at 28.5 h, 10 µM: 107% for the first, 100% for the second.

Compared with CS(=O)(=O)c1cccc(-c2cnc(NCCOc3ccccc3)c(C(=O)NCCc3ccccc3)c2)c1 [CBK076201], O=C(NCCS(=O)(=O)c1ccccc1)c1cnc(-c2ccc(Cl)cc2)c(-c2ccncc2)c1 [CBK037587] is higher in viability at 28.5 h, 10 µM: 96.5% for the first, 100% for the second.

First: O=C(N/N=C/c1ccc([N+](=O)[O-])cc1)c1ccc(O)cc1O [CBK261591]
Second: COc1ccc(/C=C2\SC(Nc3ccc(Cl)c(C(=O)O)c3)=NC2=O)cc1C [CBK067743]
The viability at 28.5 h, 10 µM of the first is higher: 105% for the first, 99.1% for the second.

First: CCCC1CCN(Cc2ccn(Cc3ccc(S(C)(=O)=O)cc3)c2)CC1 [CBK144937]
Second: CC1CCN(Cc2ccc(-c3cn(CC(=O)NCc4ccc(Br)cc4F)nn3)cc2)CC1 [CBK165756C]
The viability at 28.5 h, 10 µM of the first is higher: 94.4% for the first, 91.1% for the second.

Compared with C[C@H]1CN2CCCC2CN1Cc1cccc(F)c1F (some centres unmarked) [CBK285454], COC(=O)[C@H]1CN(C(=O)CN2CCCC2=O)C[C@@H]1c1ccc(F)cc1 [CBK283507] is lower in viability at 28.5 h, 10 µM: 111% for the first, 93.3% for the second.

Compared with O=C(c1n[nH]c2ccccc12)N1CCc2ccccc2C1 [CBK200330], Cc1c(/C=C2\SC(=S)NC2=O)c2ccccc2n1Cc1ccccc1Cl [CBK263946] is higher in viability at 28.5 h, 10 µM: 94.4% for the first, 101% for the second.

Compared with CCn1ncnc1CN(C)Cc1ccc2c(c1)CN(C)C2 [CBK306530], CCCNc1nc(-c2ccc(C)c(C)c2)cn2ccnc12 [CBK066627] is higher in viability at 28.5 h, 10 µM: 86.1% for the first, 101% for the second.

Compared with Clc1ccc(C2NCCS2)c(Cl)c1 (centres unmarked) [CBK027425], CC(C)(CC(=O)O)CC(=O)Nc1ccc(Cl)c(Cl)c1 [CBK086500] is lower in viability at 28.5 h, 10 µM: 102% for the first, 92.6% for the second.

Going from O=C(NCc1csc(-c2ccccc2)n1)C1CC=CCC1 (centres unmarked) [CBK092348] to CCC1CCCCN1C(=O)c1nc2ccccc2s1 (centres unmarked) [CBK076645], the viability at 28.5 h, 10 µM rises from 94.4% to 101%.

Compared with COc1ccc2sc(Nc3ccc(F)cc3)nc2c1 [CBK287641], COc1cncc(-c2ccc(Nc3ccc(OC)nc3)nc2)c1 [CBK037773] is higher in viability at 28.5 h, 10 µM: 95.3% for the first, 103% for the second.

Compared with Cc1ccc2oc([C@H]3CN(C(=O)C(C)(C)NC(=O)OC(C)(C)C)C[C@@H]3C(=O)O)cc2c1 [CBK001600], COC(=O)CNC(=O)C1CC(=O)N(c2ccccc2Br)C1 (centres unmarked) [CBK296672] is higher in viability at 28.5 h, 10 µM: 86.1% for the first, 97.1% for the second.

First: Cc1cc(C(=O)COc2cccc(-n3cnnn3)c2)c(C)n1C(C)c1ccccc1 (centres unmarked) [CBK295643]
Second: Cc1cccc(-n2c(SCC(=O)Nc3ccc(Br)cc3F)nnc2-c2ccccc2)c1 [CBK265903]
The viability at 28.5 h, 10 µM of the first is lower: 70.2% for the first, 98.9% for the second.

First: O=C(O)c1ccc(CN2CCC[C@H]2c2nc(-c3ccc(F)cn3)no2)cc1 [CBK288896]
Second: Cn1c(=O)n(C)c2cc(CNCc3ccc(C(=O)O)cc3)ccc21 [CBK286538]
The viability at 28.5 h, 10 µM of the first is higher: 96.9% for the first, 95.8% for the second.

Going from CS(=O)(=O)N1CCC(c2nc(-c3ccc(C(F)(F)F)cc3)c3ccccn23)CC1 [CBK036006] to O=C(CSc1nc(-c2ccco2)cc(C(F)(F)F)n1)Nc1ccc(C(=O)N2CCCCC2)cc1 [CBK266238], the viability at 28.5 h, 10 µM rises from 86.4% to 101%.

First: CCOc1ccccc1N1C(=O)CC(Sc2nc(-c3ccccc3)c3cc(Cl)ccc3n2)C1=O (centres unmarked) [CBK265405]
Second: C[C@H](Nc1nc(-c2cccc(-c3ccccc3)c2)cnc1N)c1ccccc1 [CBK063752]
The viability at 28.5 h, 10 µM of the first is higher: 116% for the first, 94.5% for the second.

Going from c1ccc(CN2C[C@H]3CCc4c[nH]nc4[C@H]3C2)nc1 [CBK282108] to Cc1ccc(C(=O)N2C3CCC2CC(O)(c2cccnc2F)C3)o1 (centres unmarked) [CBK284423], the viability at 28.5 h, 10 µM rises from 87% to 104%.

Compared with CCC(=O)NCCc1cc2ccc(C)cc2[nH]c1=O [CBK287434], CCn1c(C)nc2cc(NC(=O)Cc3c(C)noc3C)ccc21 [CBK281834] is higher in viability at 28.5 h, 10 µM: 92.4% for the first, 100% for the second.

Compared with OCCN(CC#CCC(O)(c1ccccc1)c1ccccc1)CCO [CBK263623], Cc1ccc(CN(CCCn2ccnc2)Cc2ccccc2O)o1 [CBK283189] is higher in viability at 28.5 h, 10 µM: 94.1% for the first, 99.8% for the second.

First: CC(C)(C)NC(=O)CCn1c(-c2cccnc2)cc2cccnc21 [CBK282691]
Second: CC(C)(C)c1csc(NCc2c(O)ccc3ccccc23)n1 [CBK078381]
The viability at 28.5 h, 10 µM of the first is higher: 109% for the first, 92.9% for the second.

First: CCOc1ccccc1NC(=O)NC1CC2CCC(C1)N2Cc1ccccc1 (centres unmarked) [CBK116294]
Second: O=C(Nc1ccc2c(c1)nc1n2CCN(Cc2ccccc2)C1)NC1CCCCC1 [CBK267033]
The viability at 28.5 h, 10 µM of the first is lower: 86.2% for the first, 109% for the second.

First: CCn1nncc1CNC1CCc2[nH]c3ccc(C)cc3c2C1 (centres unmarked) [CBK304749]
Second: CCOC(=O)C1=C(CSc2nccn2C)NC(=O)NC1c1ccc2c(c1)OCO2 (centres unmarked) [CBK268746]
The viability at 28.5 h, 10 µM of the first is higher: 98.3% for the first, 85.5% for the second.

Going from O=C(Nc1cccc2ncccc12)c1cccc(Oc2ccccc2)c1 [CBK296716] to CCNC(=O)Nc1ncc(-c2ccc(Oc3ccccc3)cc2)c2cccnc12 [CBK070636], the viability at 28.5 h, 10 µM rises from 91.7% to 104%.

First: Cc1ccc2nc(NC(=O)C3COc4ccccc4O3)sc2c1 (centres unmarked) [CBK287366]
Second: O=C(O)COc1cccc(NC(=O)c2cc3ccccc3o2)c1 [CBK270071]
The viability at 28.5 h, 10 µM of the first is higher: 103% for the first, 90.3% for the second.

First: Clc1ccccc1-c1nccnc1NCCc1c[nH]c2ccccc12 [CBK037337]
Second: Oc1n[nH]c(-c2ccccc2Cl)c1Cc1c(Cl)cccc1Cl [CBK107935]
The viability at 28.5 h, 10 µM of the first is higher: 106% for the first, 84.1% for the second.

Going from CN(C)c1nc(N(C)C)nc(N(C#N)S(=O)(=O)c2ccccc2Cl)n1 [CBK269036] to N#Cc1ccc(N)c2ccccc12 [CBK015754], the viability at 28.5 h, 10 µM rises from 88.3% to 90.6%.

Compared with CS(=O)(=O)N1CCCC(C(=O)Nc2ccc(S(N)(=O)=O)cc2)C1 (centres unmarked) [CBK268490], COc1cccc(NC(=O)N2CC[C@H]3CC(=O)N(c4ccccc4)CC[C@H]3C2)c1 [CBK288787] is higher in viability at 28.5 h, 10 µM: 83% for the first, 95.4% for the second.

Going from COc1ccc(Br)cc1/C=N/NC(=O)CC1C(=O)NN=C1C (centres unmarked) [CBK263359] to COc1cc(C2N3CC4(C)CN2CC(C)(C3)C4=O)ccc1O (centres unmarked) [CBK261453], the viability at 28.5 h, 10 µM rises from 99.2% to 99.6%.

First: COCCC(=O)N1C[C@@H]2C[C@H](C1)c1ccc(NC(=O)Nc3cccc(F)c3)c(=O)n1C2 [CBK289075]
Second: COc1ccc(N2CC(NC(=O)Nc3ccccn3)CC2=O)cc1 (centres unmarked) [CBK287642]
The viability at 28.5 h, 10 µM of the first is lower: 84.6% for the first, 96.9% for the second.

Compared with COc1ccc(N2CCN(c3nccnc3-c3ccc(C(C)=O)s3)CC2)cc1OC [CBK036968], CCc1nc2ccc(C(=O)N3CCN(c4ccccc4)CC3)cn2c1N(C)Cc1ccc(OC)cc1 [CBK145584] is lower in viability at 28.5 h, 10 µM: 109% for the first, 85.4% for the second.

Going from O=C(c1ccco1)N1CCN(C(=O)c2ccco2)CC1 [CBK068272] to O=C(C1CCN(Cc2ccc(F)cc2)CC1)N1CCN(C/C=C/c2ccccc2)CC1 [CBK264325G], the viability at 28.5 h, 10 µM rises from 86.4% to 96.5%.

First: CCOC(=O)CSc1nc(C)cc(Oc2ccc(=O)n(C)n2)n1 [CBK269476]
Second: CCOC(=O)Cc1nnc(-c2ccc(Cl)cc2)[nH]1 [CBK021882]
The viability at 28.5 h, 10 µM of the first is higher: 101% for the first, 89.1% for the second.

Compared with O=C1NC/C=C/CC2(CCN(Cc3ccccc3)CC2)C(=O)NCCOc2ccccc21 [CBK292097], O=C(CN1CCN(c2ccccc2)CC1)Nc1ccc(Cl)cc1C(=O)c1ccccc1 [CBK265827] is higher in viability at 28.5 h, 10 µM: 103% for the first, 107% for the second.

First: Cc1ccn2c(=O)cc(COC(=O)c3sc4nc(C)cc(C)c4c3N)nc2c1 [CBK297783]
Second: Cc1cc(C)c(S(=O)(=O)Nc2nnc(C(C)C)s2)c(C)c1 [CBK045516]
The viability at 28.5 h, 10 µM of the first is lower: 93.3% for the first, 102% for the second.

First: CC(C)(C)c1oc(C(=O)O)cc1CN1CCCC1 [CBK287136]
Second: COc1ccc(CN2CCCN(c3ccnc(OCCN4CCOCC4)n3)CC2)cc1 [CBK083800]
The viability at 28.5 h, 10 µM of the first is lower: 84.7% for the first, 99.2% for the second.

First: Nc1ncnc2c1nc1n2[C@H]2C[C@@H](O)[C@H](O2)C1=O [CBK201259]
Second: Cc1cccc2cc3c(nc12)OCC(=O)N(Cc1ccco1)C3 [CBK283816]
The viability at 28.5 h, 10 µM of the first is higher: 98.2% for the first, 97.6% for the second.

Going from CN(CCO)c1ccc(C(=O)N2CCC(N3CCOCC3)CC2)cn1 [CBK306899] to C[C@@H](Cn1c(C(F)(F)F)cc2cccnc21)NC(=O)C1CCC1 [CBK283230], the viability at 28.5 h, 10 µM rises from 97% to 109%.

Going from Fc1ccc(CNc2c(-c3cccs3)nc3cnccn23)cc1 [CBK283487] to O=C(Nc1ccncc1)OCCNC(=O)c1ccncc1 [CBK262150], the viability at 28.5 h, 10 µM falls from 112% to 102%.

First: COc1ccc(C(NC(=O)c2cn3ccsc3n2)[C@H]2C[C@H](O)C2)cn1 (some centres unmarked) [CBK306744]
Second: Cc1cc(NC(=O)CCn2cc(Br)cn2)no1 [CBK304326]
The viability at 28.5 h, 10 µM of the first is lower: 101% for the first, 102% for the second.

Molecule NCCSc1cc(C(F)(F)F)nc2ccccc12 [CBK017035] has a viability at 28.5 h, 10 µM of 81.9%.
